Experiment [1] deals with ERK1/2 phosphorylation in SS RBCs. Briefly: ERK1/2 phosphorylation in SS RBCs, Western blot (phosphoERK normalized to total ERK). It counts as cell-based, human. The method, then: Aliquots of packed RBCs were treated with various reagents to affect cAMP signaling or protein phosphorylation. […] Treated RBCs were then washed 5 times with 4 ml PBS with Ca^2+ and Mg^2+. Normal RBCs were used as controls. Prior to adhesion assays, treated RBCs were labeled with PKH 26 red fluorescent cell linker kit (Sigma), following the manufacturer's instructions.
Treated packed RBCs were lysed with hypotonic buffer (5 mM Na2HPO4+1 mM EDTA+0.1% NaN3, pH 8) containing 2 mM phenylmethylsulphonylfluoride (PMSF, Sigma), phosphatase inhibitor cocktail (Sigma) and protease inhibitor cocktail (Sigma). Protein separation by polyacrylamide gel electrophoresis using equal amounts of total RBC membrane ghost proteins per lane, after correcting total protein measurements for residual hemoglobin content, and Western blot^19 using the appropriate Ab were then performed. Mouse 3T3/A31 fibroblast lysate was used as a ERK1/2 positive control for immunoblots. For total ERK1/2, membranes blotted with anti-phosphoERK Ab were stripped and reexposed to Western blotting using anti-ERK1/2 Ab. Bands were analyzed densitometrically using ImageJ software downloaded from the NIH website. PhosphoERK1/2 data were normalized according to total ERK1/2 and are presented as fold change in ERK phosphorylation.
(In general: In western blotting, separated proteins are transferred to a membrane and probed.)

Experiment [2] has as its system ICAM-4 (LW) phosphorylation. Briefly: 32P labeling, ICAM-4 immunoprecipitation and detection of phosphorylation in SS RBCs. Particulars: SS RBCs preincubated with inhibitor. In kind it is cell-based, human. How it is done: Cells were then washed 4 times. ICAM-4 protein immunoprecipitation, and total and phospho-ICAM-4 detection were performed as previously described in detail.^4 To further confirm that the immunoprecipitates were specific for ICAM-4, anti-ICAM-4 mAb and the negative control immunoglobulin P3 were used to immunoprecipitate ICAM-4 from non-radiolabeled SS RBCs incubated in the presence or absence of epinephrine. Blots were then immunostained with anti-ICAM-4 mAb.

For experiment [3], the system named is SS RBC adhesion to TNF-α-activated HUVECs. The experiment is described as follows: Flow chamber adhesion of SS RBCs to TNF-α-activated HUVECs. It counts as cell-based, human. Particulars: for effect on SS RBC adhesion to TNF-α-activated HUVECs: SS RBCs treated with MEK inhibitor (10 μM; RDEA119 1 and 10 μM). The method, then:
Cells were then washed three times with 5 ml PBS with Ca^2+ and Mg^2+. Prior to adhesion assays, washed treated SS RBCs were labeled with PKH 26 red fluorescent cell linker kit (Sigma-Aldrich, St. Louis, Mo.), following the manufacturer's instructions.
Graduated height flow chambers were used to quantify adhesion of RBCs to HUVECs substantially as previously described in detail.^4, 20 In some adhesion studies, slides coated with HUVECs were treated with human recombinant TNF-α at 10 ng/ml for 4 hours. Slides coated with HUVECs treated or not with TNF-α were then washed three times with 20 ml HBSS with 1.26 mM Ca^2+, 0.9 mM Mg^2+ (Gibco, Grand Island, N.Y.) warmed previously to 37° C. and then fit into a variable height flow chamber. The flow chamber was mounted on the stage of an inverted phase contrast microscope (Diaphot, Nikon Inc., Melville, N.Y.) connected to a thermoplate (Tokai Hit Co., Ltd., Japan) set at 37° C. Cells were observed using a video camera (RS photometrics,) attached to the microscope and connected to a Macintosh G4 computer. RBC (3 ml) suspended at 0.2% (vol/vol) in HBSS with Ca^2+, Mg^2+ were infused into the flow chamber and allowed to adhere to the slide for 10 min without flow. Before exposure to flow, a minimum of three fields at each of seven different locations along a line oriented normal to future flow were examined for the total number of fluorescent cells. Fluid flow (HBSS with Ca^2+, Mg^2+) was then started using a calibrated syringe pump. After exposure to flow, the fields were again examined and the number of adherent cells counted. The fraction of adherent cells was presented as (number of cells attached after exposure to flow)/(cells present per field before flow). The wall shear stress was calculated as:
[formula] τw=wall shear stress (dyne/cm^2); Q=volumetric flow rate (cm^3/s); μ is media viscosity, w is the width of the flow channel, and H(x) is the height of the flow chamber as a function of position along the microscope slide. Several investigators have shown that blood flow in small vessels may be continuous, with shear stresses of 1-2 dynes/cm^2, or flow may be intermittent. Our data were obtained using both intermittent and continuous flow conditions.

For experiment [4], the system named is SS RBC membrane ghost phosphopeptides. Briefly: Label-free quantitative phosphoproteomic analysis of SS RBC membrane ghosts. The note with it: recombinant ERK2 added to U0126-treated SS RBC ghosts. It counts as cell-based, human. How it is done:
(§1) Ghosted RBCs were spun at 14,000 rpm for 15 min at 4° C. to pellet membranes. Membrane pellets were washed with 1 mL 50 mM ammonium bicarbonate (pH 8.0) with vortexing and were then spun at 14,000 rpm for 30 min at 4° C. The supernatant was then removed and 500 μL of 50 mM ammonium bicarbonate with μL 0.2% acid-labile surfactant (ALS-1) in 50 mM ammonium bicarbonate (pH 8.0) was added. Samples were subjected to probe sonication three-times for 5 sec with cooling on ice between and insoluble material was cleared by centrifugation at 14,000 rpm for 30 mins at 4° C. Samples were normalized to approximately 2 μg/μl following a micro-Bradford assay (Pierce Bioscience), and were reduced with a final concentration of 10 mM dithiothreitol at 80° C. for 20 min. Samples were then alkylated with a final concentration of 20 mM iodoacetamide at room temperature for 45 min and trypsin was added to a final ratio of 1-to-50 (w/w) enzyme-to-protein and allowed to digest at 37° C. for 18 hr. To remove ALS-1, samples were acidified to pH 2.0 with neat TFA, incubated at 60° C. for 2 hrs and spun at 14,000 rpm to remove hydrolyzed ALS-1. Samples were either subjected directly to LC-MS analysis or subjected to a TiO2 based phosphopeptide enriched protocol.
(§2) To enrich for phosphorylated peptides prior to LC-MS analysis, either 1,125 μg and 970 μg of total digested protein from RBC ghosts co-incubated with recombinant active ERK2 experiments and experiments using epinephrine-treated cells, respectively, were brought to near dryness using vacuum centrifugation and then resuspended in 200 μL of 80% acetonitrile, 1% TFA, 50 mg/ml MassPrep Enhancer (pH 2.5) (Waters Corp. Milford, Mass.). Samples were loaded onto an in-house packed TiO2 spin column (Protea Biosciences) with a 562 μg or 485 μg binding capacity for active ERK2 treated or epinephrine treated experiments, respectively. Samples were washed twice with 200 μL 80% acetonitrile, 1% TFA, 50 mg/ml MassPrep Enhancer (pH 2.5) followed by two washes with 200 μL 80% acetonitrile, 1% TFA (pH 2.5). Retained peptides were eluted twice with 100 μL 20% acetonitrile, 5% aqueous ammonia (pH 10.0), acidified to pH 3 with neat formic acid and then brought to dryness using vacuum centrifugation. Prior to LC-MS analysis, each sample was resuspended in 20 μL 2% acetonitrile, 0.1% TFA, 25 mM citric acid (pH 2.5).
Chromatographic separation of phosphopeptide enriched or non-enriched samples was performed on a Waters NanoAquity UPLC equipped with a 1.7 μm BEH130 C1875 μm I.D.×250 mm reversed-phase column. The mobile phase consisted of (A) 0.1% formic acid in water and (B) 0.1% formic acid in acetonitrile. Five μL injections of each sample were trapped for 5 min on a 5 μm Symmetry C18 180 μm I.D.×20 mm column at 20 μl/min in 99.9% A. The analytical column was then switched in-line and the mobile phase was held for 5 min at 5% B before applying a linear elution gradient of 5% B to 40% B or 5% B to 30% B over 90 min at 300 nL/min for ERK2 treated experiments or epinephrine treated experiments, respectively. The analytical column was connected to fused silica PicoTip emitter (New Objective, Cambridge, Mass.) with a 10 μm tip orifice and coupled to the mass spectrometer through an electrospray interface.
MS data from each phosphopeptide enriched sample was acquired on a Thermo LTQ-Orbitrap XL mass spectrometer operating in positive-ion mode with an electrospray voltage of 2.0 kV with real-time lockmass correction on ambiant polycyclodimethylsiloxane (m/z 445.120025) enabled. The instrument was set to acquire a precursor MS scan from m/z 400-2000 with r=60,000 at m/z 400 and a target AGC setting of 1e6 ions. Each sample was analyzed four-times, one of which was used for additional qualitative identifications only and was not included in the quantitative analysis, with product ions above a threshold of 500 counts were acquired for the top 5 most intense ions in the linear ion trap. […]

The subject of experiment [5] is AA RBC membrane ghost phosphopeptides. Briefly: Label-free quantitative phosphoproteomic analysis of normal (AA) RBC membrane ghosts. It counts as cell-based, human. The method, then: as §1
as §2, with “Prior to LC-MS analysis, each sample was resuspended in 20 μL 2% acetonitrile, 0.1% TFA, 25 mM citric acid (pH 2.5).” left out
MS data from each phosphopeptide enriched sample was acquired on a Thermo LTQ-Orbitrap XL mass spectrometer operating in positive-ion mode with an electrospray voltage of 2.0 kV with real-time lockmass correction on ambiant polycyclodimethylsiloxane (m/z 445.120025) enabled. […] Each sample was analyzed four-times, one of which was used for additional qualitative identifications only and was not included in the quantitative analysis, with product ions above a threshold of 500 counts were acquired for the top 5 most intense ions in the linear ion trap. […]

The subject of experiment [6] is PMN adhesion to non-activated HUVECs. The experiment is described as follows: Adhesion to HUVECs of PMNs co-incubated with epinephrine-stimulated SS RBCs. The note with it: SS RBCs pre-incubated with inhibitor for 1 hour, then 20 nM epinephrine 1 min. It counts as cell-based, human. How it is done:
The cells were then washed prior to admixture with fluorescently-labeled native polymorphonuclear cells (PMNs) obtained from healthy donors at a RBC:PMN ratio of 10:1. After co-incubation for 30 minutes at 37° C., cells mixtures were assayed for their ability to adhere to non-activated HUVECs. […] Downregulation of RBC adhesion receptor activity by targeting ERK may not only decrease SS RBC adhesion to the endothelium but also reduce RBC-stimulated leukocyte activation.

Experiment [7] concerns human SS RBC adhesion in inflamed venules and vaso-occlusion. The experiment is described as follows: Intravital microscopy in TNF-α-treated nude mice infused with human SS RBCs treated ex vivo with MEK inhibitor. The note with it: for percentage of venular length occupied by treated SS RBCs: compared to sham. From the text: For some in vivo adhesion studies, packed SS RBCs were fluorescently labeled with the dye Dil (Molecular Probes Inc., Eugene, Oreg.), following the manufacturer's instructions. […] Cell morphology was checked by microscopy.

[8] abbreviates: SS RBCs treated ex vivo with 10 μM inhibitor for 1 hour, n=5.

Consider `COc1c(C=O)c(O)cc2c1C(=O)c1ccccc1C2=O` [Damnacanthal], for which, in experiment [1] (SS RBCs, 2 μg/ml PTx), the “effect on PTx-induced ERK phosphorylation” value is “did not abrogate”.
Consider Pertussis toxin [PTx], for which the “increase in basal phosphorylation of ERK1/2” value came to 2.04±0.1 fold in experiment [1] (SS RBCs, 1 μg/ml PTx alone) and 2.53±0.11 fold in experiment [1] (SS RBCs, 2 μg/ml PTx alone).
In the case of “14-22 amide: PKA-specific inhibitor (PKAI)”, the “effect on combined effect of epinephrine and SPI on ICAM-4 phosphorylation” value in experiment [2] was “significantly decreased”. For the same compound, in experiment [1] (SS RBCs pre-incubated with inhibitor, then 20 nM epinephrine 1 min), the “effect on epinephrine-induced ERK1/2 phosphorylation” value is listed as “completely blocked”. In addition, in experiment [1] (SS RBCs, 30 nM), the “effect on basal ERK phosphorylation” value is “did not significantly decrease”.
In the case of TNF-α, the “increase in SS RBC adhesion vs non-activated HUVECs” value in experiment [3] (HUVECs treated with TNF-α, shear stress 2 dynes/cm^2, intermittent flow) was determined as 2.6 fold.
“ERK2: commercial recombinant active human ERK2 (Sigma) added to RBC membrane ghosts”: the “change of Ser540/Ser542 doubly phosphorylated peptide within protein 4.1” value in experiment [4] is given as “+1.7 fold”. The “increase of Ser540/Ser542 doubly phosphorylated peptide within protein 4.1” value in experiment [5] (recombinant ERK2 added to U0126-treated AA RBC ghosts) stood at 1.7 fold; in experiment [5] (recombinant ERK2 added to untreated AA RBC ghosts) it was 2.1 fold.
`COc1cc(F)c(F)c(Nc2ccc(I)cc2F)c1NS(=O)(=O)C1(C[C@H](O)CO)CC1` [RDEA119]: the “ability of epinephrine-activated SS RBCs to promote neutrophil (PMN) adhesion to HUVECs” value in experiment [6] was “significantly decreased”. Further, in experiment [7] (setting [8]), the “human SS RBC adhesion in inflamed venules” value is listed as “dramatically decreased” and the vessel obstruction entry is “prevented vessel obstruction”. Also, the “percentage of venular length occupied by treated SS RBCs” value in experiment [7] (vessels 25 μm in diameter) was “significantly decreased”. Also, the “percentage of venular length occupied by treated SS RBCs” value in experiment [7] (vessels with a diameter >25 μm) was “significantly decreased”. Moreover, the “effect on SS RBC adhesion to TNF-α-activated HUVECs” value in experiment [3] is given as “significantly abolished”.
In the case of `Cn1cnc2c(F)c(Nc3ccc(Br)cc3Cl)c(C(=O)NOCCO)cc21` [AZD6244], the “ability of epinephrine-activated SS RBCs to promote neutrophil (PMN) adhesion to HUVECs” value in experiment [6] was “significantly decreased”. The “effect on SS RBC adhesion to TNF-α-activated HUVECs” value in experiment [3] was “significantly abolished”.
For `CC(=O)Nc1cccc(-n2c(=O)n(C3CC3)c(=O)c3c(Nc4ccc(I)cc4F)n(C)c(=O)c(C)c32)c1` [GSK1120212] the same measures were “significantly decreased” and “significantly abolished”.
